Laboratory results as given in patent US12410179B2, “Modulators of TNF alpha activity and uses thereof” (RayThera, Inc., priority 2023, dated 2025).

molecular target: TNFα (Homo sapiens, UniProt P01375); experiment: HEK-Blue hTNFα reporter assay; format: cell-based; set-up: purchased R&D biosystem (R&D Systems) 210-TA-020/CF; conditions: HEK-Blue hTNFα reporter cells, SEAP readout; read-out: IC50 Range
Source text: Stimulation of HEK293 cells by TNFα leads to activation of the NF-κB pathway. The potency of compounds was examined in HEK-Blue™ hTNFα reporter cells (Invivogen, Cat #hkb-tnfdmyd). HEK-Blue™ TNFα cells were generated by stable transfection of HEK293 cell line with a SEAP reporter gene under the control of the […] minimal promoter fused to NF-κB binding sites. Stimulation of HEK-Blue™ TNFα cells with TNFα triggers the activation of the NF-κB-inducible promoter and the production of SEAP. Levels of SEAP in the supernatant can be easily determined using QUANTI-Blue™ Solution (Invivogen, cat #rep-qbs) by reading the OD at 620-655 nm.
HEK-Blue™ TNFα cells were cultured in DMEM supplemented with 10% FBS, 100p/mL penicillin, 100 μg/mL streptomycin, 100 μg/mL normocin, 1 μg/mL puromycin, and 100 μg/mL zeocin. The culture was maintained in culture incubator with 5% CO2 at 37° C. When used for assay, the cells were gently rinsed twice with pre-warmed phosphate buffered saline (PBS) and detached in presence of PBS by tapping the flask or by using a cell scraper. The cells were spun to remove PBS and resuspended in fresh, pre-warmed test medium (DMEM supplemented with 10% FBS, 100p/mL penicillin, and 100 μg/mL streptomycin). A serial dilution of work solution of tested compound was made in DMSO with 1000× of final concentration, and 40 nL of compound DMSO solution was transferred into 384-well plates (Corning 3764) by Echo, and incubated with 10 μL of recombinant hTNFα (R&D biosystem, Cat #210-TA-020/CF) for 1 h at 37° C. The compound/hTNFα mixture well received 30 μL HEK-Blue™ TNFα cell suspension at 10000 cells/well, and then incubated at 37° C. with 5% CO2 for 24 h. The final concentration of hTNFα is […]. After incubation, 5 μL of induced cell supernatant was transferred to a new 384-well plate well (Coring 3764) to mix with 45 μL of QUANTI-Blue Solution. After 1 h incubation at 37° C., the plate was read using a spectrophotometer at 620 nm.
The percentage of inhibition was calculated by the following formula: % inhibition=(positive control−Sample)/(positive control−negative control)*100 • Positive control: OD620 reading of cells with hTNFα stimulation. • Negative control: OD620 reading of cells without hTNFα stimulation. • Sample: OD620 reading of cells with compound at specific concentration and hTNFα stimulation
The % inhibition was plotted against compound concentration in logarithmic scale and the IC50 was rendered using 4-parameter nonlinear regression (GraphPad Prism).

TNFα, sequence (P01375 77-233 limits assumed): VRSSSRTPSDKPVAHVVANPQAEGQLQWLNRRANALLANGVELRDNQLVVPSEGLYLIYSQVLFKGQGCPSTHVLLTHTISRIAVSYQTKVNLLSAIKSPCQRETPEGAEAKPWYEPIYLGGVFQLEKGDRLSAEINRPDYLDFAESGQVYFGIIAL

SMILES | IC50 [nM]
[2H]C([2H])([2H])N1C(=O)c2cccc(OC(F)F)c2[C@H]2C[C@@H]1c1nn3cc(F)c(-c4cnc([C@]5(O)C[C@@](C)(N)C5)c(F)c4)cc3c12 [Example 256] | < 25
CN1C(=O)c2cccc(OC(F)F)c2[C@H]2C[C@@H]1c1nn3ccc(-c4cnc([C@]5(O)C[C@@](C)(O)C5)nc4)cc3c12 [Example 24] | < 25
[2H]C([2H])([2H])N1C(=O)c2cccc(OC(F)F)c2[C@H]2C[C@@H]1c1nn3ccc(-c4cnc(C5(N)COC5)nc4)nc3c12 [Example 177] | 25 to 100
[2H]C([2H])([2H])N1C(=O)c2cccc(OC(F)F)c2[C@H]2C[C@@H]1c1nn3ccc(-c4cnc([C@H](N)C5CC5)nc4)nc3c12 [Example 277] | < 25
[2H]C([2H])([2H])N1C(=O)c2cccc(OC(F)F)c2[C@H]2C[C@@H]1c1nn3ccc(-c4cnc([C@](O)(CC#N)C(F)F)nc4)cc3c12 [Example 96] | < 25
[2H]C([2H])([2H])N1C(=O)c2cccc(OC(F)F)c2[C@H]2C[C@@H]1c1nn3cnc(-c4cnc([C@]5(O)C[C@@](C)(N)C5)nc4)cc3c12 [Example 261] | 25 to 100
NC1(c2ncc(-c3ccn4nc5c(c4c3)[C@@H]3C[C@H]5NC(=O)c4cccc(OC5CC5)c43)cn2)CCC1 [Example 233] | 25 to 100
C[C@]1(O)C[C@](N)(c2ncc(-c3nc4c5c(nn4cc3F)[C@H]3C[C@@H]5c4c(OC(F)F)cccc4C(=O)N3)cn2)C1 [Example 223] | < 25
C[C@]1(C#N)C[C@](N)(c2ccc(-c3ccn4nc5c(c4n3)[C@@H]3C[C@H]5NC(=O)c4cccc(OC(F)F)c43)cn2)C1 [Example 217] | < 25
[2H]C([2H])([2H])N1C(=O)c2cccc(OC(F)F)c2[C@H]2C[C@@H]1c1nn3ccc(-c4cnc(C5(NC)CC5)nc4)nc3c12 [Example 243] | 25 to 100
NC1(c2ccc(-c3ccn4nc5c(c4c3)[C@@H]3C[C@H]5NC(=O)c4cccc(OC(F)F)c43)cn2)CCC1 [Example 203] | < 25
CN1C(=O)c2cccc(OC(F)F)c2[C@H]2C[C@@H]1c1nn3cc(F)c(-c4ccc(P(C)(C)=O)nc4)nc3c12 [Example 25] | < 25
[2H]C([2H])([2H])N1C(=O)c2cccc(OC(F)F)c2[C@H]2C[C@@H]1c1nn3cc(F)c(-c4cnc([C@]5(N)C[C@@](C)(CO)C5)nc4)cc3c12 [Example 270] | < 25
CN1CCN(c2ncc(-c3ccn4nc5c(c4c3)[C@@H]3C[C@H]5N(C)C(=O)c4cccc(OC(F)F)c43)cn2)CC1 [Example 155] | < 25
CN1C(=O)c2cccc(OC(F)F)c2[C@H]2C[C@@H]1c1nn3ccc(-c4ccc(P(C)(C)=O)nn4)cc3c12 [Example 100] | < 25
[2H]C([2H])([2H])N1C(=O)c2cccc(OC(F)F)c2[C@H]2C[C@@H]1c1nn3ccc(-c4cnc(C(C)(C)N)nc4)cc3c12 [Example 254] | < 25
[2H]C([2H])([2H])N1C(=O)c2cccc(OC(F)F)c2[C@H]2C[C@@H]1c1nn3ccc(-c4ccc(C5(N)CCC5)nc4)nc3c12 [Example 182] | < 25
[2H]C([2H])([2H])N1C(=O)c2cccc(OC(F)F)c2[C@H]2C[C@@H]1c1nn3cc(F)c(-c4cnc([C@]5(N)C[C@@H](C#N)C5)nc4)nc3c12 [Example 227] | < 25
CN1C(=O)c2c(F)ccc(OC(F)F)c2[C@H]2C[C@@H]1c1nn3ccc(-c4cnc(C5(N)CCC5)nc4)cc3c12 [Example 322, (7R,14S)-12-(2-(1-aminocyclobutyl)pyrimidin-5-yl)-1-(difluoromethoxy)-4-fluoro-6-methyl-6,7-dihydro-7,14-methanobenzo[c]pyrido[1′,2′:1,5]pyrazolo[4,3-f]azocin-5 (14H)-one] | 25 to 100
CN1C(=O)c2cccc(OC(F)F)c2[C@H]2C[C@@H]1c1nn3ccc(-c4cnc([C@]5(N)C[C@@](C)(O)C5)nc4)cc3c12 [Example 28] | < 25

SMILES | IC50 [nM]
CN1C(=O)c2cccc(OC(F)F)c2[C@H]2C[C@@H]1c1nn3ccc(-c4cnc([C@]5(O)C[C@@](C)(O)C5)nc4)nc3c12 [Example 16] | < 25
CN1C(=O)c2cccc(OC(F)F)c2[C@H]2C[C@@H]1c1nn3ccc(-c4cnc(S(=N)(=O)C5CC5)cn4)cc3c12 (some centres unmarked) [Example 126] | < 25
CN1C(=O)c2cccc(OC(F)F)c2[C@H]2C[C@@H]1c1nn3ccc(-c4cnc(C5(O)COC5)nc4)cc3c12 [Example 77] | < 25
[2H]C([2H])([2H])N1C(=O)c2cccc(OC(F)F)c2[C@H]2C[C@@H]1c1nn3cc(F)c(-c4cnc([C@]5(O)C[C@@](C)(N)C5)nc4)nc3c12 [Example 185] | 25 to 100
C[C@]1(C#N)C[C@](N)(c2ncc(-c3ccn4nc5c(c4n3)[C@@H]3C[C@H]5NC(=O)c4cccc(OC(F)F)c43)cn2)C1 [Example 60] | < 25
[2H]C([2H])([2H])N1C(=O)c2cccc(OC(F)F)c2[C@H]2C[C@@H]1c1nn3ccc(-c4cnc([C@]5(N)C[C@@H](O)C5)nc4)cc3c12 [Example 187] | < 25
CN1C(=O)c2cccc(OC(F)F)c2[C@H]2C[C@@H]1c1nn3ccc(-c4cnc(C(C)(C)O)nc4)nc3c12 [Example 11, (7R,14S)-1-(difluoromethoxy)-12-(2-(2-hydroxypropan-2-yl)pyrimidin-5-yl)-6-methyl-6,7-dihydro-7,14-methanobenzo[c]pyrimido[1′,2′:1,5]pyrazolo[4,3-f]azocin-5 (14H)-one] | 25 to 100
CN1C(=O)c2cccc(OC(F)F)c2[C@H]2C[C@@H]1c1nn3ccc(-c4cnc(C5(N)CC5)nc4)nc3c12 [Example 6, (7R,14S)-12-(2-(1-aminocyclopropyl)pyrimidin-5-yl)-1-(difluoromethoxy)-6-methyl-6,7-dihydro-7,14-methanobenzo[c]pyrimido[1′,2′:1,5]pyrazolo[4,3-f]azocin-5 (14H)-one] | < 25
CN1C(=O)c2ccnc(OC(F)F)c2[C@H]2C[C@@H]1c1nn3cc(F)c(-c4ccc(P(C)(C)=O)c(F)c4)cc3c12 [Example 159] | < 25
CN1C(=O)c2cccc(OC(F)F)c2[C@H]2C[C@@H]1c1nn3ccc(-c4ccc(P(C)(C)=O)nc4)nc3c12 [Example 13, (7R,14S)-1-(difluoromethoxy)-12-(6-(dimethylphosphoryl)pyridin-3-yl)-6-methyl-6,7-dihydro-7,14-methanobenzo[c]pyrimido[1′,2′:1,5]pyrazolo[4,3-f]azocin-5 (14H)-one] | < 25
CN1C(=O)c2cccc(OC(F)F)c2[C@H]2C[C@@H]1c1nn3cnc(-c4cnc([C@]5(O)C[C@@](C)(C#N)C5)nc4)cc3c12 [Example 45] | < 25
[2H]C([2H])([2H])N1C(=O)c2cccc(OC(F)F)c2[C@H]2C[C@@H]1c1nn3cc(F)c(-c4cnc([C@]5(N)C[C@@](C)(O)C5)cn4)cc3c12 [Example 214] | < 25
CN1C(=O)c2cccc(OC(F)F)c2[C@H]2C[C@@H]1c1nn3ccc(-c4cnc([C@@H](O)CN5CCC5)nc4)cc3c12 [Example 171] | 25 to 100
Cn1ccc(N2CC=C(c3ccn4nc5c(c4c3)[C@@H]3C[C@H]5NC(=O)c4cccc(OC(F)F)c43)CC2)n1 [Example 315, (7R,14S)-1-(difluoromethoxy)-12-(1-(1-methyl-1H-pyrazol-3-yl)-1,2,3,6-tetrahydropyridin-4-yl)-6,7-dihydro-7,14-methanobenzo[c]pyrido[1′,2′:1,5]pyrazolo[4,3-f]azocin-5 (14H)-one] | 25 to 100
CN1C(=O)c2cccc(OC(F)F)c2[C@H]2C[C@@H]1c1nn3cc(F)c(-c4cnc([C@@](C)(O)CC#N)nc4)cc3c12 [Example 116] | < 25
[2H]C([2H])([2H])N1C(=O)c2cccc(OC(F)F)c2[C@H]2C[C@@H]1c1nn3ccc(-c4cnc(C(C)(C)N)nc4)nc3c12 [Example 286] | < 25
CN1C(=O)c2cccc(OC(F)F)c2[C@H]2C[C@@H]1c1nn3ccc(-c4cnc([C@]5(O)C[C@@](C)(O)C5)cn4)cc3c12 [Example 42] | < 25
[2H]C([2H])([2H])N1C(=O)c2cccc(OC(F)F)c2[C@H]2C[C@@H]1c1nn3ccc(-c4cnc([C@](C)(O)CC#N)nc4)cc3c12 [Example 90] | < 25
CN1C(=O)c2cccc(OC(F)F)c2[C@H]2C[C@@H]1c1nn3ccc(-c4cnc([C@@](C)(O)CC#N)nc4)cc3c12 [Example 76] | < 25

same assay, conditions: HEK-Blue hTNFα reporter cells; read-out: TNFα reporter, Emax

SMILES | Emax [%]
CN1C(=O)c2cccc(OC(F)F)c2[C@H]2C[C@@H]1c1nn3ccc(-c4cnc([C@]5(O)C[C@@](C)(O)C5)nc4)cc3c12 [Example 24] | 91

same assay, conditions: HEK-Blue hTNFα reporter cells; read-out: TNFα reporter, IC50

SMILES | IC50 [nM]
CN1C(=O)c2cccc(OC(F)F)c2[C@H]2C[C@@H]1c1nn3ccc(-c4cnc([C@]5(O)C[C@@](C)(O)C5)nc4)cc3c12 [Example 24] | 2.3
